Laboratory results: patent US7071294B1, “Tumor antigen protein art-1 and tumor antigen peptide thereof” (Green Peptide Co., Ltd., priority 1998, dated 2006)
Where no end group is shown, it is not given here.

T1: HLA-A2402 expressed on COS-7 cells transfected with a recombinant plasmid for HLA-A2402 cDNA (human, UniProt P04439-2 25-302 at identity 0.92))
T1 MHC heavy: not shown


Legend:
KG-CTL = test: IFN-γ production by KG-CTL in response to HLA-A2402-transfected COS-7 cells pulsed with peptide (ELISA); format: cell-based, human; conditions: COS-7 transfected with HLA-A2402 cDNA
Protocol: A surgical sample taken from a patient with lung cancer was cut into small pieces, and then stirred in a culture fluid containing collagenase and DNAse to suspend cells. The cell suspension was centrifuged using Ficoll Conray solution to separate lymphocytes. The lymphocytes were cultured on 24-well plate in a culture medium consisting of 45% RPMI-1640, 45% AIM-V (GIBCO BRL), and 10% FCS supplemented with 100 U/ml interleukin-2 and 0.1 mM NEAA (GIBCO BRL) (hereinafter referred to as lymphocyte medium). During the first two days of the cultivation, an anti-CD3 antibody NU-T3 (Nichirei Corporation) was added to the culture medium at 1 μg/ml. The cultivation was continued for more than 30 days, and a CTL line that is reactive with some kinds of HLA-A24- or HLA-A2-positive cancer cell lines was established. The established CTL line was named KG-CTL and used in subsequent procedures. The reactivity of KG-CTL to each cancer cell line was examined by inoculating the cancer cell line into 96-well plate at 1×10^4, adding KG-CTL at 1×10^5/well thereto on the following day, culturing the same for additional 18 hours, and then determining amount of interferon-γ (IFN-γ) produced by KG-CTL in the recovered culture medium. Measurement of IFN-γ was conducted by enzyme immunoassay (ELISA). […] Anti-human IFN-γ rabbit polyclonal antibody as detection antibody was then allowed to bind, and after binding to an anti-rabbit immunoglobulin goat antibody labeled with […] (Amersham), the chromophore was developed using Peroxidase Chromophoric Kit T (Sumitomo Bakelite), followed by measuring absorbance at 405 nm. The absorbance was compared with that obtained with standard IFN-γ to determine the amount of IFN-γ in the sample. […] The cells were then cultured with 2×10^4 KG-CTLs for 18 hours, and the amount of IFN-γ produced by KG-CTL in the culture supernatant was determined by the ELISA method, thus identifying tumor antigen peptides.

[1] = tested on: peripheral blood lymphocytes; test: CTL induction from peripheral blood lymphocytes by tumor antigen peptides; IFN-γ produced in response to MT-2 target cells (ELISA); format: cell-based, human; conditions: for IFN-γ in Supernatant: HLA-A24 heterozygous healthy donor lymphocytes stimulated three times with 10 μM peptide, 8×10^4 lymphocytes vs 1×10^4 MT-2 target cells, no peptide gave 3; for IFN-γ production by peptide-stimulated peripheral blood lymphocytes in response to the target cell (CTL induction): MT-2 target cells, not seen with no stimulation
Protocol: Using the Ficoll method, lymphocytes were separated from peripheral blood of healthy donors who were heterozygous for A24 in the HLA-A locus. The lymphocytes were placed into wells of a 24-well plate at 2×10^6 cells/well, and cultured in the lymphocyte medium. The above tumor antigen peptides were added to the culture medium at 10 μM to stimulate the peripheral blood lymphocytes. One week later, the above tumor antigen peptides were added to attain 10 μM together with about 2×10^5 cells of X-radiated (50 Gy) peripheral blood lymphocytes for the second stimulation. Additional one week later, the third stimulation was conducted in a similar manner. Cultured lymphocytes were harvested one week after the third stimulation. Using as target cells (1×10^4 cells) MT-2, which is an HLA-A2402-positive leukemia cell line expressing the tumor antigen peptide, the amount of IFN-γ in the culture medium produced by the above lymphocytes (8×10^4 cells) in response to the target cells was measured in accordance with ELISA method.

[2] = target: T1, HLA-A2402 expressed on COS-7 cells …; test: cell-based or functional assay

Row | Molecule | Reactivity of KG-CTLs compared to cells pulsed with no peptide (KG-CTL) | IFN-γ in Supernatant [1] | IFN-γ production by peptide-stimulated peripheral blood lymphocytes in response to the target cell (CTL induction) [1] | Amount of IFN-γ produced by KG-CTL in the response [2]
1 | EYCLKFTKL [188–196] | reacted more strongly | 147 pg/mL | produced IFN-γ in response to the target cell | –
2 | GFDCANESVL [170–179] | reacted more strongly | 237 pg/mL | produced IFN-γ in response to the target cell | –
3 | LYQAVATI [158–165] | reacted more strongly | 330 pg/mL | produced IFN-γ in response to the target cell | –
4 | LYQAVATI | – | – | – | 289 pg/mL
5 | GFDCANESVL | – | – | – | 458 pg/mL
6 | EYCLKFTKL | – | – | – | 399 pg/mL
